How the values were obtained:
Type in all cases: cell-based
Botrytis allii = details: after three days, glucose-agar, pH~6.9-7.0
From the text: (§1) Antifungal activity of organotin compounds. Minimal concentra-
(§2) tion (mg/l) causing complete inhibition of visible growth (MIC;
(§3) after three days). -Test medium: glucose-agar; pH~6.9-7.0.

Aspergillus niger = details: after three days, glucose-agar, pH~6.9-7.0
From the text: as §1, §2, §3

Cladosporium cucumerinum = details: after three days, glucose-agar, pH~6.9-7.0
From the text: as §1, §2, §3

Penicillium italicum = details: after three days, glucose-agar, pH~6.9-7.0
From the text: as §1, §2, §3

E. coli = E. coli (Gram-neg.); after three days; peptone-glucose agar; pH ~ 6.9-7.0
From the text: (§4) Antibacterial activity of organotin compounds. Minimal concentration
(§5) causing complete inhibition of visible growth (MIC; after three days).
(§6) Test medium: peptone-glucose agar; pH ~ 6.9-7.0.

P. fluorescens = P. fluorescens (Gram-neg.); after three days; peptone-glucose agar; pH ~ 6.9-7.0
From the text: as §4, §5, §6

S. lactis = S. lactis (Gram-pos.); after three days; peptone-glucose agar; pH ~ 6.9-7.0
From the text: as §4, §5, §6

B. subtilis = B. subtilis (Gram-pos.); after three days; peptone-glucose agar; pH ~ 6.9-7.0
From the text: as §4, §5, §6

Row | Structure (SMILES) | Minimal concentration causing complete inhibition of visible growth (MIC) (Botrytis allii) | Minimal concentration causing complete inhibition of visible growth (MIC) (Aspergillus niger) | Minimal concentration causing complete inhibition of visible growth (MIC) (Cladosporium cucumerinum) | Minimal concentration causing complete inhibition of visible growth (MIC) (Penicillium italicum) | Minimal concentration causing complete inhibition of visible growth (MIC) (E. coli) | Minimal concentration causing complete inhibition of visible growth (MIC) (P. fluorescens) | Minimal concentration causing complete inhibition of visible growth (MIC) (S. lactis) | Minimal concentration causing complete inhibition of visible growth (MIC) (B. subtilis)
1 | CCC[CH2][Sn]([CH2]CCC)([CH2]CCC)[CH2]CCOC(C)=O [Bu3 Sn(CH2)3 OCOCH3] | 50 µg/mL | 50 µg/mL | 20 µg/mL | 20 µg/mL | > 1000 µg/mL | 300 µg/mL | 100 µg/mL | 100 µg/mL
2 | CCCC[CH2][Sn]([CH2]CCCC)([CH2]CCCC)[CH2]CC[N+](C)(C)C.[I-] [Pent3 Sn(CH2)3 NMe3 I] | ≤ 10 µg/mL | 20 µg/mL | 20 µg/mL | 20 µg/mL | – | – | – | –
3 | CCC[CH2][Sn]([CH2]CCC)([CH2]CCC)[CH2]CC(N)=O [Bu3 Sn(CH2)2 CONH2] | ≤ 10 µg/mL | ≤ 20 µg/mL | ≤ 10 µg/mL | ≤ 10 µg/mL | > 1000 µg/mL | 300 µg/mL | 10 µg/mL | 3 µg/mL
4 | CCC[CH2][Sn]([CH2]CCC)([CH2]CCC)[CH2]CCCN [Bu3 Sn(CH2)4 NH2] | – | – | – | – | 300 µg/mL | 300 µg/mL | 3 µg/mL | 3 µg/mL
5 | CCC[CH2][Sn]([CH2]CCC)([CH2]CCC)[CH2]CC[N+](C)(C)C.[I-] [Bu3 Sn(CH2)3 NMe3 I] | ≤ 10 µg/mL | 50 µg/mL | 20 µg/mL | 50 µg/mL | 30 µg/mL | 300 µg/mL | ≤ 1 µg/mL | ≤ 1 µg/mL
6 | CCC[CH2][Sn]([CH2]CCC)([CH2]CCC)[CH2]CCN [Bu3 Sn(CH2)3 NH2] | – | 20 µg/mL | 5 µg/mL | 2 µg/mL | – | – | – | –
7 | CCC[CH2][Sn]([CH2]C#N)([CH2]CCC)[CH2]CCC [Bu3 SnCH2 CN] | 20 µg/mL | 1 µg/mL | – | 5 µg/mL | – | – | – | –
8 | CCC[CH2][Sn]([CH2]CCC)([CH2]CCC)[CH2]CCC [Bu4 Sn, reference compound] | > 500 µg/mL | > 500 µg/mL | > 500 µg/mL | > 500 µg/mL | > 500 µg/mL | > 500 µg/mL | > 500 µg/mL | > 500 µg/mL
9 | CCC[CH2][Sn]([CH2]CCC)([CH2]CCC)[O]C(C)=O [Bu3 SnOAc, reference compound] | 0.5 µg/mL | 1 µg/mL | 1 µg/mL | 0.5 µg/mL | > 500 µg/mL | 100 µg/mL | 5 µg/mL | 2 µg/mL
10 | CCC[CH2][Sn]([CH2]CCC)([CH2]CCN(C)C)[CH2]CCN(C)C [Bu2 Sn[(CH2)3 NMe2]2] | 50 µg/mL | > 500 µg/mL | 500 µg/mL | 100 µg/mL | 100 µg/mL | 300 µg/mL | 100 µg/mL | 100 µg/mL
11 | O=C([CH2][Sn]([c]1ccccc1)([c]1ccccc1)[c]1ccccc1)[O][Sn]([c]1ccccc1)([c]1ccccc1)[c]1ccccc1 [Ph3 SnCH2 COOSnPh3] | ≤ 10 µg/mL | ≤ 10 µg/mL | – | ≤ 10 µg/mL | – | – | – | –
12 | C[N+](C)(C)CC[CH2][Sn]([c]1ccccc1)([c]1ccccc1)[c]1ccccc1.[I-] [Ph3 Sn(CH2)3 NMe3 I] | 20 µg/mL | > 500 µg/mL | 500 µg/mL | 200 µg/mL | 1000 µg/mL | 1000 µg/mL | 10 µg/mL | 10 µg/mL
13 | CCC[CH2][Sn]([CH2]CCC)([CH2]CCC)[CH2]CCN(C)C.Cl [Bu3 Sn(CH2)3 NMe2 . HCl] | 5 µg/mL | 5 µg/mL | 5 µg/mL | 5 µg/mL | 300 µg/mL | 300 µg/mL | 10 µg/mL | 10 µg/mL
14 | CCC[CH2][Sn]([CH3])([CH2]CCC)[CH2]CCNCCCN(C)C [MeBu2 Sn(CH2)3 NH(CH2)3 NMe2, N-[3-(methyldibutylstannyl)propyl-N', N'-dimethyltrimethylene]diamine] | ≤ 10 µg/mL | 50 µg/mL | 50 µg/mL | ≤ 10 µg/mL | 10 µg/mL | 10 µg/mL | 10 µg/mL | 10 µg/mL
15 | CCC[CH2][Sn]([CH2]CCC)([CH2]CC[N+](C)(C)C)[CH2]CC[N+](C)(C)C.[I-].[I-] [Bu2 Sn[(CH2)3 NMe3 I]2, Bis(trimethylammoniopropyl)dibutyltin diiodide] | 200 µg/mL | > 500 µg/mL | > 500 µg/mL | 200 µg/mL | > 1000 µg/mL | > 1000 µg/mL | 300 µg/mL | 300 µg/mL
16 | CCC[CH2][Sn]([CH2]CCC)([CH2]CCC)[CH2]CCO [Bu3 Sn(CH2)3 OH] | 50 µg/mL | 100 µg/mL | 100 µg/mL | 100 µg/mL | > 1000 µg/mL | > 1000 µg/mL | 300 µg/mL | 1000 µg/mL
17 | CC[N+](C)(CC)CC[CH2][Sn]([c]1ccccc1)([c]1ccccc1)[c]1ccccc1.[I-] [Ph3 Sn(CH2)3 NEt2 MeI] | 50 µg/mL | > 1000 µg/mL | – | 500 µg/mL | – | – | – | –
18 | CC[CH2][Sn]([CH2]CC)([CH2]CC)[CH2]CCNCCCN(C)C [Pr3 Sn(CH2)3 NH(CH2)3 NMe2, N-[3-(tripropylstannyl)propyl-N', N'-dimethyltrimethylene]diamine] | ≤ 10 µg/mL | 10 µg/mL | ≤ 10 µg/mL | ≤ 10 µg/mL | 10 µg/mL | 10 µg/mL | 10 µg/mL | 10 µg/mL

— patent US4221811A, “Antifungal and/or antibacterial organotin compounds, and use” (priority 1977, dated 1980)
